Earlier results as cited in patent US20220323308A1, “DISSOLVABLE VITAMIN C AND RETINOL FILM” (Mary Kay Inc., priority 2019, published 2022).

Conditions: topical, when properly formulated

- enhancement of endogenous ascorbic acid levels in the skin: up to twenty-fold
Structure (SMILES): O=C1O[C@H]([C@@H](O)CO)C(O)=C1O [ascorbic acid]
